The text below walks through data of publication PMC11347161, “Sequence diversity of apidaecin-like peptides arresting the terminating ribosome” (Nucleic Acids Research, 2024).

≈ marks a conversion by molar mass, not a printed value. Residues, ends and D or L forms follow the SMILES beside them. No end group written: not given here. *: point of attachment. Orn(α-tetramethylguanidino) = CN(C)C(=N[C@@H](CCCN)C(=O)*)N(C)C

The subject of the assay is E. coli, BL21 cells. It counts as cell-based. The note with it: for MIC, TSB / MIC, LB / MIC, RPMI/Serum: E. coli BL21, broth microdilution, conducted in triplicate; for MIC, TSB: 33% TSB medium; for MIC, LB: LB medium; for MIC, RPMI/Serum: RPMI/Serum medium (RPMI-1640:MHB:FBS = 100:5:20). As for the experimental part: The E. coli strain CA244 (lacZ125(Am), e14-, trpA49(Am), relA1, spoT1) was obtained from Escherichia coli Genetic Stock Center. The E. coli BL21(DE3) electrocompetent cells were from Sigma. The following media and components were implemented for bacteria growth: lysogeny broth (LB), minimal M9 medium, Tryptic Soy Broth (TSB), Roswell Park Memorial Institute medium 1640 (RPMI-1640), Mueller Hinton Broth (MHB), Fetal Bovine Serum (FBS). For various experiments E. coli cells were grown either in LB, in 33% TSB ([21]), in M9 medium supplemented with 1% Glycerol, 1 mM MgSO4, 0.1 mM CaCl2 and 10 μg/ml thiamine, or in RPMI/Serum (RPMI-1640:MHB:FBS = 100:5:20) ([23]).
The minimal inhibitory concentration (MIC) test was performed using the broth microdilution method, adapted from the previously described procedure ([28]). The MIC tests were conducted in triplicate either in LB, 33% TSB or RPMI/Serum media.
In order to quantitatively assess the antimicrobial activity of the synthesized peptides identified by both, the negative and positive selection strategies, we determined their minimal inhibitory concentrations (MICs) for the E. coli BL21 cells in three different media: LB, as a standard laboratory medium, 33% TSB, as a medium in which PrAMPs show increased antibacterial properties ([21]), and in the more therapeutically relevant RPMI/serum media ([23]) (Table 1). […] It appears, therefore, that the positive selection strategy is more prone to identifying biologically active peptides in comparison with the negative selection approaches. Furthermore, it became apparent that some multiple substitutions can even improve the antibacterial properties of the Api-like peptides.

With `CC[C@H](C)[C@H](NC(=O)[C@H](Cc1ccc(O)cc1)NC(=O)[C@H](CCCNC(=N)N)NC(=O)[C@@H]1CCCN1C(=O)[C@H](CCCNC(=N)N)NC(=O)[C@H](CC(N)=O)NC(=O)[C@H](CC(N)=O)NC(=O)[C@H](CCCN)N=C(N(C)C)N(C)C)C(=O)N1CCC[C@H]1C(=O)N[C@@H](C)C(=O)N1CCC[C@H]1C(=O)N[C@@H](CCCNC(=N)N)C(=O)N1CCC[C@H]1C(=O)N1CCC[C@H]1C(=O)N[C@@H](Cc1c[nH]cn1)C(=O)N1CCC[C@H]1C(=O)N[C@@H](CCCNC(=N)N)C(=O)N[C@@H](CC(C)C)C(=O)O` [Peptide R6A10] ({Orn(α-tetramethylguanidino)}-NNRPRYIPAPRPPHPRL-OH; C-terminus assumed), the “MIC, TSB” value turned out to be 0.5 µM (≈ 1.13 µg/mL); the “MIC, LB” value worked out at 4 µM (≈ 9.05 µg/mL); the “MIC, RPMI/Serum” value stood at 0.0625 µM (≈ 0.141 µg/mL). The “MIC values relative to wt Api” value (E. coli BL21, peptides from depletion selection) is given as “comparable to those of wt Api”.

For the compound `CC[C@H](C)[C@H](NC(=O)[C@H](Cc1ccc(O)cc1)NC(=O)[C@@H](NC(=O)[C@H](Cc1c[nH]c2ccccc12)NC(=O)[C@H](CCCNC(=N)N)NC(=O)[C@H](CC(N)=O)NC(=O)[C@H](CC(N)=O)NC(=O)[C@H](CCCN)N=C(N(C)C)N(C)C)C(C)C)C(=O)N[C@@H](CC(N)=O)C(=O)N[C@H](C(=O)N1CCC[C@H]1C(=O)N[C@@H](CCCNC(=N)N)C(=O)N[C@@H](CO)C(=O)N1CCC[C@H]1C(=O)N[C@@H](Cc1c[nH]cn1)C(=O)N1CCC[C@H]1C(=O)N[C@@H](CCCNC(=N)N)C(=O)N[C@@H](CC(C)C)C(=O)O)[C@@H](C)O` [Peptide W5N9T10S13] ({Orn(α-tetramethylguanidino)}-NNRWVYINTPRSPHPRL-OH; C-terminus assumed), the “MIC, TSB” value was more than 64 µM; the “MIC, LB” value is more than 64 µM; the “MIC, RPMI/Serum” value was more than 64 µM.

On to GKNRPVYIYQPKPPIPRL [Peptide K2Y9K12I15], for which the “MIC, TSB” value was more than 64 µM; the “MIC, LB” value was more than 64 µM; the “MIC, RPMI/Serum” value is more than 64 µM.

Regarding GNNRPGYDRQPRPPHPRL [Peptide G6D8R9], the “MIC, TSB” value was 8 µM; the “MIC, LB” value amounted to 16 µM; the “MIC, RPMI/Serum” value amounted to 4 µM.

As for GNNRPGYIPPPRPPHPRL [Peptide G6P10], the “MIC, TSB” value turned out to be 0.5 µM; the “MIC, LB” value turned out to be 8 µM; the “MIC, RPMI/Serum” value was found to be 4 µM.

GNNRPGYQPKPRPPHPRL [Peptide G6Q8K10]: the “MIC, TSB” value turned out to be 0.5 µM; the “MIC, LB” value is 32 µM; the “MIC, RPMI/Serum” value was determined as 16 µM.

Take GNNRPVCAPQPAWPTGRL [C7A8A12W13T15G16]: the “MIC, TSB” value was more than 64 µM; the “MIC, LB” value was more than 64 µM; the “MIC, RPMI/Serum” value was more than 64 µM.

For the compound GNNRPVECPQPRPRVPRL [Peptide E7C8R14V15], the “MIC, TSB” value was more than 64 µM; the “MIC, LB” value is more than 64 µM; the “MIC, RPMI/Serum” value is more than 64 µM.

On to GNNRPVYAYQPRPPHPRT [Peptide A8Y9T18], for which the “MIC, TSB” value amounted to 4 µM; the “MIC, LB” value is 32 µM; the “MIC, RPMI/Serum” value was determined as 8 µM.

As for GNNRPVYIPKPPTPHPRL [Peptide K10P12T13], the “MIC, TSB” value was found to be 1 µM; the “MIC, LB” value amounted to 64 µM; the “MIC, RPMI/Serum” value was 8 µM.

As to GNNRPVYIPKPRPPYPRK [Peptide K10Y15K18], the “MIC, TSB” value came to 2 µM; the “MIC, LB” value turned out to be 8 µM; the “MIC, RPMI/Serum” value worked out at 2 µM.

“GNNRPVYIPQPRPPHPRL [Api Ib, Apidaecin 1b, reference compound]”: the “MIC, TSB” value stood at 0.5 µM; the “MIC, LB” value was determined as 16 µM; the “MIC, RPMI/Serum” value is 4 µM.

As for GNRRPMYIPRPRPPHPRE [Peptide R3M6R10E18], the “MIC, TSB” value amounted to 8 µM; the “MIC, LB” value is more than 64 µM; the “MIC, RPMI/Serum” value amounted to 16 µM.

For the compound GNRRPVYIPVPRPPYPRL [Peptide R3V10Y15], the “MIC, TSB” value is 2 µM; the “MIC, LB” value was 8 µM; the “MIC, RPMI/Serum” value worked out at 2 µM.
